The species entered for series [1] is Homo sapiens. Description: cells.
Series [2] can be described thus: physchem. The settings on record: octanol/water.
Description: Partition coefficient (logP)
The species named for series [3] is Homo sapiens. Description: Inhibitory activity against Leukotriene (LTB4) biosynthesis in isolated human polymorphonuclear cells (PMNs); not active. It is filed as functional.

Each structure is given as a SMILES string.

The compound `CCCc1cc2c(c(C(C)(C)C)c1O)CCO2` showed an IC50 in series [1] of 430 nM. This compound showed a lipophilicity (logP) in series [2] of 5.4.

On to `Oc1ccc2c(c1CCCOc1ccccc1)CCO2`, for which the half-maximal inhibitory concentration (IC50) in series [1] is 290 nM. Further, in series [2], the logP came out at 4.3.

For `COC(=O)c1ccc(OCCCOc2cc3c(cc2O)CCO3)cc1`, the midpoint of inhibition in series [1], the IC50, lay at 71 nM. In series [2], this compound came in with a log partition coefficient (logP) of 3.7.

In turn, `CCCc1cc2c(c(C)c1O)CCO2` registered a half-maximal inhibitory concentration (IC50) in series [1] of 160 nM. The compound also gave a logP in series [2] of 4.1.

With `Oc1ccc2c(c1CCCSCc1cccnc1)CCO2`, it took 2000 nM to reach half-maximal inhibition in series [1] (IC50). For the same compound, the logP in series [2] was 3.3.

Regarding `O=C(O)Cc1ccc(OCCCOc2cc3c(cc2O)CCO3)cc1`, the IC50 result in series [3] is given as “Not Active”.

In series [1], `CCCCOc1cc2c(cc1O)CCO2` registered a 50% inhibitory concentration (IC50) of 180 nM. Moreover, the logP in series [2] is 3.1.

In series [1], `CCCc1ccc(OCCCc2cc3c(cc2O)CCO3)cc1` showed an IC50 of 9 nM. Also, the log partition coefficient (logP) in series [2] amounted to 6.

In series [1], `O=C(O)c1cccc(OCCCOc2cc3c(cc2O)CCO3)c1` yielded an IC50 of 5100 nM.

The compound `Oc1cc2c(cc1SCc1ccccc1)OCC2` showed an IC50 in series [1] of 110 nM. In series [2], this compound had a logP of 4.1.

The compound `Oc1cc2c(cc1Sc1ccccc1)OCC2` had a half-maximal inhibitory concentration (IC50) in series [1] of 140 nM. In series [2], this compound registered a logP of 4.1.

In turn, `Oc1cc2c(cc1SCCc1ccccc1)OCC2` gave an IC50 in series [1] of 66 nM. The lipophilicity (logP) in series [2] was determined as 4.4.

In turn, `CCCc1cc2c(cc1O)CCO2` came in with a 50% inhibitory concentration (IC50) in series [1] of 290 nM. The log partition coefficient (logP) in series [2] was determined as 3.4.

Consider `Oc1cc2c(cc1Sc1cccnc1)OCC2`, for which the half-maximal inhibitory concentration (IC50) in series [1] amounted to 1200 nM. Also, the logP in series [2] is 2.8.

As to `O=C(O)CCCc1cc2c(cc1O)CCO2`, the IC50 result in series [3] is “Not Active”.

`CCCc1c(O)ccc2c1CCO2`: inhibition in series [1] was half-maximal at 1000 nM (IC50). The same compound yielded a lipophilicity (logP) in series [2] of 3.4.

In turn, `Oc1ccc2c(c1CCCSc1ccccc1)CCO2` showed an IC50 in series [1] of 120 nM. In addition, the lipophilicity (logP) in series [2] amounted to 4.9.

In turn, `CC(C)(C)c1c(O)ccc2c1CCO2` registered an IC50 in series [1] of 730 nM. Further, in series [2], the logP was 3.7.

Take `Oc1cc2c(cc1CCCOc1ccc(F)cc1)OCC2`: in series [1], the IC50 was found to be 28 nM. Also, the lipophilicity (logP) in series [2] amounted to 4.5.

The compound `OCCc1cccc(OCCCc2cc3c(cc2O)CCO3)c1` returned an IC50 in series [1] of 60 nM. Also, the logP in series [2] is 3.5.

In turn, `Oc1cc2c(cc1Oc1ccccc1)OCC2` came in with a half-inhibitory concentration (IC50) in series [1] of 420 nM. The logP in series [2] was determined as 3.7.

With `O=C(O)c1ccccc1OCCCOc1cc2c(cc1O)CCO2`, the half-maximal inhibitory concentration (IC50) entry in series [3] is reported as “Not Active”.

Consider `OCCCc1cc2c(cc1O)CCO2`, for which inhibition in series [1] was half-maximal at 10000 nM (IC50). In series [2], this compound returned a logP of 1.4.

In series [1], `CCCc1cc2c(c(Br)c1O)CCO2` came in with a half-inhibitory concentration (IC50) of 65 nM. This compound also registered a logP in series [2] of 4.3.

Compound `Oc1cc2c(cc1OCCCOc1ccccc1)OCC2` returned a half-inhibitory concentration (IC50) in series [1] of 320 nM. For the same compound, in series [2], the lipophilicity (logP) turned out to be 3.4.

In the case of `Oc1ccc2c(c1)CCO2`, it took 4000 nM to reach half-maximal inhibition in series [1] (IC50). Further, the logP in series [2] was determined as 1.7.

The compound `N#CCCCc1cc2c(cc1O)CCO2` returned an IC50 in series [1] of 1400 nM. In addition, in series [2], the log partition coefficient (logP) was 1.8.

In series [1], `Oc1cc2c(cc1CCCSCc1cccnc1)OCC2` came in with a 50% inhibitory concentration (IC50) of 280 nM. Also, the logP in series [2] is 3.3.

For the compound `Oc1cc2c(cc1CCCNc1ccccc1)OCC2`, in series [1], it took 140 nM to reach half-maximal inhibition (IC50). In series [2], this compound registered a logP of 3.8.

`Oc1cc2c(cc1CCCSc1ccccc1)OCC2` displayed a half-maximal inhibitory concentration (IC50) in series [1] of 19 nM. The compound further had a lipophilicity (logP) in series [2] of 4.9.

The compound `Oc1cc2c(cc1Cc1ccccc1)OCC2` displayed an IC50 in series [1] of 280 nM. For the same compound, in series [2], the log partition coefficient (logP) amounted to 3.9.

`COC(=O)Cc1ccc(OCCCOc2cc3c(cc2O)CCO3)cc1` came in with an IC50 in series [1] of 120 nM. The compound also yielded a logP in series [2] of 3.1.

`C=CCc1c(O)ccc2c1CCO2`: the IC50 in series [1] is 2100 nM. The compound further registered a logP in series [2] of 2.9.

Compound `Oc1ccc2c(c1CCCNc1ccccc1)CCO2` returned an IC50 in series [1] of 1400 nM. Also, the logP in series [2] is 3.8.

On to `Oc1cc2c(cc1CCCOc1ccccc1)OCC2`, for which, in series [1], the half-maximal inhibitory concentration (IC50) was found to be 57 nM. The compound also returned a logP in series [2] of 4.3.

Turning to `C=CCc1cc2c(c(C)c1O)CCO2`, in series [1], half-maximal inhibition (IC50) was put at 130 nM. In addition, in series [2], the lipophilicity (logP) worked out at 3.5.

In series [1], `OCCc1ccccc1OCCCc1cc2c(cc1O)CCO2` gave a 50% inhibitory concentration (IC50) of 290 nM. In addition, the logP in series [2] was determined as 3.5.

Compound `OCCCc1c(O)ccc2c1CCO2` had an IC50 in series [1] of 33000 nM. The compound further had a logP in series [2] of 1.4.

In series [1], `C=CCc1cc2c(cc1O)CCO2` returned an IC50 of 480 nM. The compound also showed a log partition coefficient (logP) in series [2] of 2.9.

In series [1], `CCCOc1cc2c(cc1O)CCO2` came in with a half-maximal inhibitory concentration (IC50) of 470 nM. In series [2], this compound had a logP of 2.6.

With `Oc1cc2c(cc1SCCCc1ccccc1)OCC2`, the IC50 in series [1] came out at 28 nM. In series [2], this compound gave a logP of 4.9.

`Cc1c(O)c(CCCSc2ccccc2)cc2c1CCO2` gave an IC50 in series [1] of 19 nM. The lipophilicity (logP) in series [2] was 5.9.

As for `CC(C)c1cc2c(cc1O)CCO2`, half-maximal inhibition in series [1] (IC50) was put at 300 nM. The compound also gave a log partition coefficient (logP) in series [2] of 3.3.

Consider `Oc1cc2c(cc1OCCCc1ccccc1)OCC2`, for which, in series [1], inhibition was half-maximal at 51 nM (IC50). For the same compound, the lipophilicity (logP) in series [2] amounted to 4.2.

In turn, `COC(=O)c1cccc(OCCCOc2cc3c(cc2O)CCO3)c1` came in with a 50% inhibitory concentration (IC50) in series [1] of 68 nM. Also, the logP in series [2] was determined as 3.7.

Compound `CC(C)(C)c1cc2c(cc1O)CCO2` had an IC50 in series [1] of 790 nM. This compound showed a log partition coefficient (logP) in series [2] of 3.7.

In series [1], `COCCOc1cc2c(cc1O)CCO2` displayed a half-inhibitory concentration (IC50) of 3200 nM. In series [2], this compound displayed a logP of 1.3.

Turning to `OCCc1ccc(OCCCc2cc3c(cc2O)CCO3)cc1`, in series [1], 340 nM corresponded to half-maximal inhibition (IC50). In series [2], the logP was 3.5.

`COC(=O)c1ccccc1OCCCOc1cc2c(cc1O)CCO2` registered an IC50 in series [1] of 47 nM. Also, in series [2], the logP was determined as 3.4.

Consider `Oc1cc2c(cc1Sc1ccncc1)OCC2`, for which, in series [1], 2600 nM corresponded to half-maximal inhibition (IC50). Also, the logP in series [2] was determined as 2.8.

`Oc1cc2c(cc1Sc1ccccn1)OCC2` had an IC50 in series [1] of 2800 nM. The compound also came in with a logP in series [2] of 2.8.

In series [1], `Oc1cc2c(cc1CCCOc1ccc(Cl)cc1)OCC2` gave an IC50 of 55 nM. The logP in series [2] is 5.1.

The compound `O=C1CCN(c2ccccc2)N1` [PHENIDONE] had an IC50 in series [1] of 8000 nM.

What is called IC50 is the concentration needed to halve the response being measured. The term logP denotes the decadic logarithm of the partition coefficient of the neutral form, usually between octanol and water.
